Data from article PMC8301025 (Biology, 2021).

Biological target: T1, CLas GMPS (guanosine 5′-monophosphate synthetase)
T1 construct: gene guaA
Type: biochemical, Candidatus Liberibacter asiaticus

| Compound | Ki [µM] |
| --- | --- |
| Nc1nc(=O)c2nc(CNc3ccc(C(=O)N[C@@H](CCC(=O)O)C(=O)O)cc3)cnc2[nH]1 [Compound5481, folic acid] | 52 |
| CCN(CCCOc1ccc2c(Nc3cc(CC(=O)Nc4cccc(F)c4)n[nH]3)ncnc2c1)CCOP(=O)(O)O [Compound1334, AZD1152] | 4.05 |
